Measured values taken from publication PMC6522930, “Design, synthesis and biological activity evaluation of a new class of 2,4-thiazolidinedione compounds as insulin enhancers” (Journal of Enzyme Inhibition and Medicinal Chemistry, 2019).

Assays:
[1] = biological target: T1, PPARα (Homo sapiens, UniProt Q07869); assay: In vitro activation of PPARα (cells containing PPAR, EC50); format: cell-based; conditions: n ≥ 8; 24 h; read-out: EC50 ± SD PPARα
T1 construct: expressed in transfected cells
T1 sequence (Q07869 1-468): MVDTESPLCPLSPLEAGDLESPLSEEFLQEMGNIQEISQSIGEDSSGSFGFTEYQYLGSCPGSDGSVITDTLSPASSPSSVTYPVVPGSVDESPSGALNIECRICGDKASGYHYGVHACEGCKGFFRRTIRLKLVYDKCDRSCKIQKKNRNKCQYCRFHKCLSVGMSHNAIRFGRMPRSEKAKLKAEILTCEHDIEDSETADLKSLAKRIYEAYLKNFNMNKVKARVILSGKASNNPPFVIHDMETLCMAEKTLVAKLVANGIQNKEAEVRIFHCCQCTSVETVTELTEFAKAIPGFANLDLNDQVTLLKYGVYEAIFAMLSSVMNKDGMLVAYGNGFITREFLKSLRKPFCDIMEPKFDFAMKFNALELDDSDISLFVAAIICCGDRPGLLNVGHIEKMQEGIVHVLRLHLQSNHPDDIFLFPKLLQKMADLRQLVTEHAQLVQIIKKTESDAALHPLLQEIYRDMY
Method: (§1) According to the literature, the cells containing PPAR (α, β and γ) were obtained and transfected into 96-well plates the day before for cells culture. Transfection was performed according to the instructions of human PPAR enzyme-linked immunoassay. […] After 24 h, the drugs were added, and 20 μl of MTT was added to each well for another 6 h, and the cell liquid was collected by removing the culture medium, and 150 μl of DMSO was added to each hole. And the absorbance value (A) of each hole was measured under the wavelength of 460 nm.

[2] = biological target: T2, PPARγ (Homo sapiens, UniProt P37231); assay: In vitro activation of PPARγ (cells containing PPAR, EC50); format: cell-based; conditions: n ≥ 8; 24 h; read-out: EC50 ± SD PPARγ
T2 construct: expressed in transfected cells
T2 sequence (P37231 1-505): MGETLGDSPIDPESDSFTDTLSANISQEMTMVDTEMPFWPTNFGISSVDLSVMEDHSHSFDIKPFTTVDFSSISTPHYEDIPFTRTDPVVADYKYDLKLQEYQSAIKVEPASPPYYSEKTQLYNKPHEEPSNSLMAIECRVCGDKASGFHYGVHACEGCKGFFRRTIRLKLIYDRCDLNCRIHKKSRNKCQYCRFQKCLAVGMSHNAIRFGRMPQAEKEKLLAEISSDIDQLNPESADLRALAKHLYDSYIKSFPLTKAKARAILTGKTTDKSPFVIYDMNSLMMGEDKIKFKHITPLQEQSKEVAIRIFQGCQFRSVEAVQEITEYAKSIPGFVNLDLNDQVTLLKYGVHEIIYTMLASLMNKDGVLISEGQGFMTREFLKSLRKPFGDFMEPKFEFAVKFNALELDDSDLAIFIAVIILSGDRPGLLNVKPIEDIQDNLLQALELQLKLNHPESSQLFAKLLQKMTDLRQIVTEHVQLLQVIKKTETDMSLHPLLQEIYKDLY
Method: as §1

[3] = Lipid–water partition coefficient (log p); format: physicochemical
Description: (§2) Drug in vitro experiment was one of the basic contents to evaluate drugs activity, and it was a necessary approach to research drugs. Drugs’ efficacy was often affected by some physical and chemical properties of compounds, such as lipid–water partition coefficient (log p), and dissociation degree (pKa). […] In Table 1, we could find that target compounds were fat-soluble. The fat-soluble compounds were favourable for drugs absorption, and drugs were easy to enter the cells. […] The pKa will affect the absorption and delivery of the drugs, different environmental (acid and alkalinity) medicine may be different, sometimes exists in the form of ions, sometimes exists in the form of molecules. Usually in the form of ion drugs has no effect. Therefore, it was necessary to study the dissociation degree (pKa) of drugs to study the pharmacodynamics. […] After the physical and chemical properties were studied, the biological activity was studied. […] After that, the target compounds 6a, 6e, 6f, 6g and 6i had good biological activity and were preliminarily screened out for further study on PPARγ receptor agonist activity (Figure 5).

[4] = Dissociation degree (pKa); format: physicochemical
Description: as §2

[5] = test system: healthy mice; assay: Oral glucose tolerance test; format: in vivo; conditions: for Blood glucose levels 1 h / Blood glucose levels 2 h / Blood glucose levels 0 h: 10 mg kg^−1 d^−1 oral for 10 d; for Blood glucose levels 1 h: 1 h after sugar load; for Blood glucose levels 2 h: 2 h after sugar load; for Blood glucose levels 0 h: fasted 12 h, before sugar load; for Effect in glucose tolerance test (in words): 10 mg kg^−1 d^−1 oral, 10 d
Method: In vivo experiments, glucose tolerance test, insulin tolerance test, cell survival experiment and acute toxicity were used as the test indicators (Tables 2, [3] and [4]). In Table 2, we chose dose 10 mg kg^−1 d^−1 and used oral administration. […] The mice were given the drug for 10 d, blood was collected from the tail vein of the mice before and after the sugar load for 1 h and 2 h, and the blood glucose level of the mice before and after the sugar load was measured by the glucometer.
(§3) (1) Glucose tolerance test: The healthy mice (20 ± 2 g) were selected. After 1 week of acclimation, mice with no body surface damage, good general condition and flexible reaction were selected for the experiment. The test compounds were dissolved with DMSO, and were given a dose volume of 0.2 ml 10 g^−1, and a dose of 10 mg kg^−1, and given by gavage (oral) once a day. […] The mice were given the drug for 10 d, and after the last dose, the mice fasted for 12 h. The next day, blood was collected from the tail vein of the mice before and after the sugar load for 1 h and 2 h, and the blood glucose level of the mice before and after the sugar load was measured by the glucometer. […] The 12 h of fasting after the last administration, blood was taken from the orbital venous plexus (used to measure the blood glucose level after fasting). Each group was immediately given a subcutaneous injection of 0.2 μg kg^−1 of insulin. After 1 h and 2 h of injection, blood was taken again. (3) Cell survival experiment: The HUVEC cells were inoculated on the 96-well plate at the initial concentration of 3 × 10^3 cells/holes, and 100 μl RPMI 1640 medium were added to each hole. At 5% CO2 and 37 °C cell cultivation in 24 h, every pore solution in different concentrations. […] And determine the hole under 460 nm wavelength absorbance value (A).

[6] = test system: healthy mice; assay: Insulin tolerance test (blood glucose under insulin load); format: in vivo; conditions: for Effect in insulin tolerance test (in words): 10 mg kg^−1 d^−1; for Blood glucose levels 1 h / Blood glucose levels 2 h / Blood glucose levels 0 h: 10 mg kg^−1 d^−1 for 15 d; for Blood glucose levels 1 h: 1 h after s.c. insulin 0.2 μg kg^−1; for Blood glucose levels 2 h: 2 h after s.c. insulin 0.2 μg kg^−1; for Blood glucose levels 0 h: fasted 12 h, before insulin
Method: as §3

[7] = test system: HUVEC cells; assay: Cell survival experiment (cytotoxicity); format: cell-based; conditions: for Cytotoxic effect (in words): 10^−3–10^−2 mol L^−1; for Cell survival rate: HUVEC cells
Method: as §3

[8] = Acute toxicity test (LD50); format: in vivo; conditions: oral administration; n ≥ 3

Row | EC50 [1] [µM] | SMILES | EC50 [2] [µM] | logP [3] | pKa [4] | Blood glucose levels 1 h [5] [mmol/L] | Blood glucose levels 2 h [5] [mmol/L] | Blood glucose levels 0 h [5] [mmol/L] | Effect in glucose tolerance test (in words) [5] | Effect in insulin tolerance test (in words) [6] | Blood glucose levels 1 h [6] [mmol/L] | Blood glucose levels 2 h [6] [mmol/L] | Blood glucose levels 0 h [6] [mmol/L] | Cytotoxic effect (in words) [7] | Cell survival rate ([7]; 10^−2 mol l^−1) [%] | Cell survival rate ([7]; 10^−3 mol l^−1) [%] | Cell survival rate ([7]; 10^−4 mol l^−1) [%] | Cell survival rate ([7]; 10^−5 mol l^−1) [%] | Cell survival rate ([7]; 10^−6 mol l^−1) [%] | LD50 ± SD [8] [mg/kg]
1 | 13 ± 1.56 | O=C1NC(=O)C(Cc2ccc(OCCNC(=O)c3ccccn3)cc2)S1 (stereo not drawn) [Compound 6c, N-(2-(4-((2,4-dioxothiazolidin-5-yl)methyl)phenoxy)ethyl) picolinamide] | 0.45 ± 0.21 | 1.92 | 10 |  |  |  |  |  |  |  |  |  |  |  |  |  |  | 
2 |  | Cc1ccc(C(=O)NCCOc2ccc(CC3SC(=O)NC3=O)cc2)cc1 (stereo not drawn) [Compound 6e, N-(2-(4-((2,4-dioxothiazolidin-5-yl)methyl)phenoxy)ethyl)-4-methylbenzamide] | 0.03 ± 0.01 | 3.26 | 9.77 | 6.003 ± 1.876 | 2.953 ± 0.876 | 3.312 ± 0.301 | good resistance activation to glucose | good resistance activation to insulin | 1.762 ± 0.453 | 2.463 ± 1.211 | 5.411 ± 1.002 | no obvious cytotoxic effect | 94.3 ± 1.02 | 99.1 ± 0.08 | 100 | 100 | 100 | 2451.2 ± 1.24
3 |  | Cc1ccc(C(=O)NCCOc2ccc(CC3SC(=O)NC3=O)nc2)cc1 (stereo not drawn) [Compound 6f, N-(2-((6-((2,4-dioxothiazolidin-5-yl)methyl)pyridin-3-yl)oxy)ethyl)-4-methylbenzamide] | 0.1 ± 0.1 | 2.56 | 9.65 | 6.651 ± 2.413 | 4.121 ± 1.922 | 3.216 ± 0.315 | good resistance activation to glucose | good resistance activation to insulin | 1.903 ± 0.611 | 2.602 ± 1.143 | 5.714 ± 1.465 | no obvious cytotoxic effect | 89.6 ± 1.34 | 98.3 ± 0.45 | 99.2 ± 0.31 | 99.8 ± 0.09 | 100 | 2013.6 ± 1.43
4 |  | Cc1ccc(C(=O)NCCOc2ccc(CC3SC(=O)NC3=O)cc2)nc1 (stereo not drawn) [Compound 6g, N-(2-(4-((2,4-dioxothiazolidin-5-yl)methyl)phenoxy)ethyl)-5-methylpicolinamide] | 0.08 ± 0.03 | 2.83 | 9.45 | 6.445 ± 2.220 | 3.677 ± 1.730 | 3.112 ± 0.279 | good resistance activation to glucose | good resistance activation to insulin | 1.843 ± 0.544 | 2.566 ± 1.224 | 5.613 ± 1.246 | no obvious cytotoxic effect | 90.5 ± 1.54 | 98.6 ± 0.44 | 99.8 ± 0.09 | 100 | 100 | 2138.8 ± 1.36
5 | 10.6 ± 1.86 | Cc1ccc(C(=O)NCCOc2ccc(CC3SC(=O)NC3=O)nc2)nc1 (stereo not drawn) [Compound 6h, N-(2-((6-((2,4-dioxothiazolidin-5-yl)methyl)pyridin-3-yl)oxy)ethyl)-5-methylpicolinamide] | 0.28 ± 0.13 | 2.01 | 9.41 |  |  |  |  |  |  |  |  |  |  |  |  |  |  | 
6 |  | O=C1NC(=O)C(Cc2ccc(OCCNC(=O)c3ccc(O)cc3)cc2)S1 (stereo not drawn) [Compound 6i, N-(2-(4-((2,4-dioxothiazolidin-5-yl)methyl)phenoxy)ethyl)-4-hydroxybenzamide] | 0.07 ± 0.02 | 2.8 | 9.03 | 6.401 ± 2.112 | 3.265 ± 1.236 | 3.218 ± 0.317 | good resistance activation to glucose | good resistance activation to insulin | 1.792 ± 0.541 | 2.501 ± 1.025 | 5.592 ± 1.134 | no obvious cytotoxic effect | 92.1 ± 1.43 | 98.8 ± 0.29 | 99.9 ± 0.02 | 100 | 100 | 2268.9 ± 1.25
7 |  | O=C1NC(=O)C(Cc2ccc(OCCNC(=O)c3ccc(O)cn3)cc2)S1 (stereo not drawn) [Compound 6k, N-(2-(4-((2,4-dioxothiazolidin-5-yl)methyl)phenoxy)ethyl)-5-hydroxypicolinamide] | 0.21 ± 0.11 | 2.32 | 8.66 |  |  |  |  |  |  |  |  |  |  |  |  |  |  | 
8 |  | CN(CCOc1ccc(CC2SC(=O)NC2=O)cc1)c1ccccn1 (stereo not drawn) [Rosiglitazone, reference compound] |  |  |  | 6.351 ± 2.004 | 3.654 ± 1.232 | 3.265 ± 0.345 |  |  |  |  |  |  |  |  |  |  |  | 2246.1 ± 1.56
